The values that follow come from PubChem BioAssay (NCI).

Structures are written as SMILES. Values joined by “and” are separate entries in the source; they are usually repeats but may differ in a detail not shown here. Identical values can stand only once.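 Results reflect a 48-hour exposure of cells in 96-well plates to compound at five concentrations. The concentration for 50% growth inhibition is given as GI50. TGI denotes the concentration required for complete inhibition of growth.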

Some test systems named below: HCT-116 colon; HOP-92 NSCLC; MOLT-4 leukemia; NCI-H226 lung; SF-268 CNS; SK-OV-3 ovarian; SNB-75 CNS; SR leukemia; TK-10 renal; UO-31 renal.
Common to all, as to experiment: NCI tumour cell line growth inhibition, 48 h

Turning to `COc1cc(/C=C/C(=O)c2cccnc2Nc2ccc(F)cc2)cc(OC)c1OC`, the GI50 with HCT-116 colon is 1.54 µM; with HOP-92 NSCLC it was 1.67 µM; with MOLT-4 leukemia, 2.75 µM; with NCI-H226 lung it was 1.79 µM; in the assay with SF-268 CNS, 4.18 µM; in the assay with SK-OV-3 ovarian it was 3.1 µM. Besides, the GI50 was 1.93 µM in the assay with SNB-75 CNS, 1.93 µM with SR leukemia, 3.52 µM in the assay on TK-10 renal and 5.62 µM in the assay with UO-31 renal. The TGI worked out at 2.96 µM in the assay with HCT-116 colon; 5.65 µM in the assay with HOP-92 NSCLC; 9.52 µM with MOLT-4 leukemia; 3.78 µM in the assay with NCI-H226 lung; 17.6 µM in the assay with SF-268 CNS; 8.67 µM with SK-OV-3 ovarian. Further, the TGI was 8.51 µM in the assay with SNB-75 CNS, 8.36 µM in the assay on SR leukemia, 9.5 µM in the assay with TK-10 renal and 48 µM with UO-31 renal.
Take `Cc1cccc2c(N)c3ccccc3nc12`: the GI50 with HCT-116 colon was 0.454 µM; with HOP-92 NSCLC it was 2.18 µM; in the assay on MOLT-4 leukemia, 0.556 µM; in the assay with NCI-H226 lung, 1.44 µM; with SF-268 CNS it was 1.5 µM; with SK-OV-3 ovarian, 2.12 µM. For the same compound, the GI50 in the assay on SNB-75 CNS is 1.47 µM; in the assay on SR leukemia, 0.727 µM; with TK-10 renal, 1.78 µM; with UO-31 renal, 0.595 µM. Also, the TGI in the assay on HCT-116 colon stood at 11.2 µM; in the assay on HOP-92 NSCLC, 6.05 µM; in the assay on MOLT-4 leukemia, 11.1 µM; in the assay with NCI-H226 lung, 6.19 µM; in the assay on SF-268 CNS, 9.22 µM; in the assay with SK-OV-3 ovarian it was 17.4 µM. Moreover, the TGI stood at 4.14 µM with SNB-75 CNS, 13.3 µM with SR leukemia, 8.27 µM with TK-10 renal and 6.09 µM in the assay with UO-31 renal.
In the case of `O=C1NCCS(=O)(=O)/C1=C\C=C\c1cccc(C(F)(F)F)c1`, the GI50 in the assay on HCT-116 colon is 1.41 µM; with HOP-92 NSCLC, 5.09 µM; in the assay on MOLT-4 leukemia it was 2.05 µM; in the assay with NCI-H226 lung it was 2.75 µM; in the assay on SF-268 CNS it was 3.28 µM; in the assay with SK-OV-3 ovarian it was 5.83 µM. Moreover, the GI50 was 4.36 µM in the assay with SNB-75 CNS, 0.539 µM in the assay with SR leukemia, 3.95 µM in the assay with TK-10 renal and 1.76 µM in the assay with UO-31 renal. Moreover, the TGI is 3.72 µM with HCT-116 colon; 16.4 µM in the assay on HOP-92 NSCLC; 9.54 µM in the assay with MOLT-4 leukemia; 7.65 µM in the assay with NCI-H226 lung; 15 µM in the assay with SF-268 CNS; 18.3 µM in the assay on SK-OV-3 ovarian. Further, the TGI in the assay on SNB-75 CNS is 20.1 µM; with SR leukemia, greater than 100 µM; in the assay on TK-10 renal, 13 µM; with UO-31 renal, 3.79 µM.
With `COc1ccc(Nc2cc(C)nc(N3CCN(c4ccnc5cc(Cl)ccc45)CC3)n2)cc1`, the GI50 in the assay with HCT-116 colon was 1.34 µM; in the assay with HOP-92 NSCLC it was 1.04 µM; in the assay on MOLT-4 leukemia, 2.9 µM; with NCI-H226 lung, 4.7 µM; in the assay on SF-268 CNS, 4.7 µM; with SK-OV-3 ovarian, 4.81 µM. Besides, the GI50 in the assay with SNB-75 CNS is 2.47 µM; in the assay on SR leukemia it was 2.68 µM; in the assay on TK-10 renal, 3.64 µM; in the assay with UO-31 renal, 2.24 µM. Besides, the TGI in the assay with HCT-116 colon was 3.24 µM; with HOP-92 NSCLC, 5.59 µM; in the assay on MOLT-4 leukemia it was 19.7 µM; in the assay with NCI-H226 lung, greater than 100 µM; in the assay with SF-268 CNS, greater than 100 µM; with SK-OV-3 ovarian, greater than 100 µM. Also, the TGI in the assay on SNB-75 CNS was 13.4 µM; with SR leukemia it was greater than 100 µM; with TK-10 renal, 47.6 µM; with UO-31 renal it was greater than 100 µM.
`[Cl][Cd][Cl]`: the GI50 in the assay on HCT-116 colon was 40.3 µM and 48.3 µM; in the assay on HOP-92 NSCLC, > 80.2 µM and 15.2 µM; in the assay with MOLT-4 leukemia it was 31.4 µM and 11.8 µM; with NCI-H226 lung, > 44 µM and 11.9 µM; in the assay with SF-268 CNS it was 16.5 µM and 8.95 µM; in the assay on SK-OV-3 ovarian, 44.3 µM and 12.4 µM. Besides, the GI50 in the assay with SNB-75 CNS is 22.7 µM and 11.2 µM; in the assay on SR leukemia, 52.3 µM and 6.16 µM; with TK-10 renal, 90.5 µM; in the assay with UO-31 renal, > 74 µM and 74.5 µM. The TGI is 117 µM with HCT-116 colon; 35.3 µM with HOP-92 NSCLC; > 83.4 µM and 82.9 µM in the assay with MOLT-4 leukemia; > 69.7 µM and 43.6 µM in the assay on NCI-H226 lung; 33.9 µM and 24.4 µM in the assay with SF-268 CNS; > 60 µM and 26 µM with SK-OV-3 ovarian. In addition, the TGI in the assay with SNB-75 CNS was 45.6 µM and 29.4 µM; with SR leukemia, 500 µM; with TK-10 renal it was 192 µM; with UO-31 renal, 131 µM.
For the compound `COC(=O)[C@@H](C)C[C@H](Cc1ccccc1)NC(=O)c1csc([C@@H](C[C@H](C(C)C)N(C)C(=O)[C@H](C)NC(=O)[C@H]2CCCCN2C)OC(C)=O)n1`, the GI50 is 0.774 µM with HCT-116 colon; 0.982 µM in the assay with HOP-92 NSCLC; 2.22 µM with MOLT-4 leukemia; greater than 25 µM with NCI-H226 lung; 1.65 µM with SF-268 CNS; 11 µM in the assay on SK-OV-3 ovarian. In addition, the GI50 is 0.47 µM with SNB-75 CNS, 0.452 µM in the assay with SR leukemia, greater than 25 µM with TK-10 renal and 19.2 µM in the assay with UO-31 renal. For the same compound, the TGI in the assay on HCT-116 colon, in the assay on HOP-92 NSCLC, with MOLT-4 leukemia, in the assay with NCI-H226 lung, with SF-268 CNS and in the assay on SK-OV-3 ovarian was greater than 25 µM throughout. In addition, the TGI is 1.71 µM in the assay with SNB-75 CNS, greater than 25 µM in the assay with SR leukemia, greater than 25 µM in the assay with TK-10 renal and greater than 25 µM in the assay on UO-31 renal.
With `C=C1c2c(Cl)ccc(O)c2C(O)=C2C(=O)[C@]3(O)C(O)=C(C(N)=O)C(=O)[C@@H](N(C)C)[C@@H]3[C@@H](O)[C@H]12`, the GI50 is 0.97 µM in the assay on HCT-116 colon; 0.669 µM in the assay on HOP-92 NSCLC; 1.89 µM in the assay with MOLT-4 leukemia; 1.59 µM with NCI-H226 lung; 1.41 µM in the assay with SF-268 CNS; 1 µM in the assay on SK-OV-3 ovarian. Further, the GI50 in the assay on SNB-75 CNS was 0.845 µM; in the assay on SR leukemia, 1.58 µM; in the assay with TK-10 renal, 0.656 µM; with UO-31 renal it was 1.19 µM. The TGI in the assay on HCT-116 colon came to 3.22 µM; in the assay with HOP-92 NSCLC, 2.16 µM; with MOLT-4 leukemia, 12.3 µM; in the assay on NCI-H226 lung, 8.91 µM; with SF-268 CNS, 7.16 µM; in the assay on SK-OV-3 ovarian, 3.2 µM. Also, the TGI is 3.61 µM in the assay on SNB-75 CNS, greater than 50 µM in the assay with SR leukemia, 3.41 µM in the assay on TK-10 renal and 6.22 µM in the assay on UO-31 renal.
